How the values were obtained:
recombinant human DHODH = recombinant human DHODH (Homo sapiens (Human), UniProt Q02127); experiment: DHODH enzyme assay (Assay A), DCIP absorbance; format: biochemical; details: bins ≥10 nM-<100 nM and <10 nM; read-out: IC50 DHODH inhibition activity
MOLM-13 cells = experiment: MOLM-13 cell viability (Assay B), Cell Titer-Glo; format: cell-based; details: Homo sapiens, MOLM-13; 72 hours; bins ≥10 nM-<100 nM and <10 nM; read-out: IC50 MOLM13 inhibition activity
Method in brief: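 Cells at 1,000 per well in RPMI/10% FBS were exposed to compound (10E-5 to 6E-12 M), with or without 100 μM uridine, for 72 h. Viability was read by CellTiter-Glo luminescence. Duplicates were run, and potency was taken from two independent experiments.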

in vitro [1] = details: for HLM % remaining: % remaining at 60 min, 1 μM; for half-life at 1 μM: both, human, pooled liver microsomes
Method: Human Liver Microsomal metabolic stability: The microsomal metabolic stability assay utilized pooled human liver microsomes (mixed gender, BD Gentest), with supplemented cofactors NADPH and UDPGA (Solarbio S&T Co., LTD). Two separate experiments were performed as follows: • a) With cofactors (NADPH & UDPGA): 25 μL of 10 mM NADPH and 25 μL of 20 mM UDPGA were added to 197.5 μL of reaction solution (phosphate buffer (final concentration in assay 100 mM), MgCl2 (final concentration in assay (5 mM)), alamethacin (final concentration in assay 0.025 mg/mL) and microsomes (final concentration in assay 0.5 mg/mL). • b) Without cofactors (NADPH & UDPGA): 50 μL of H2O was added to 197.5 μL of reaction solution.
The mixture was pre-warmed at 37° C. for 10 minutes. The reaction was started with the addition of 2.5 μL of 100 μM control compound or test compound solutions. Diclofenac was used as positive control in this study. The final concentration of control compound and test compounds was 1 μM. Aliquots of 25 μL were taken from the reaction solution at 0.5, 5, 15, 30 and 60 minutes. The reaction was stopped by the addition of 5 volumes of cold acetonitrile containing internal standards. Samples were centrifuged at 3,220 g for 40 minutes. An aliquot of 100 μL of the supernatant was mixed with 100 μL of ultra-pure H2O and then used for LC-MS/MS analysis. Peak areas were determined from extracted ion chromatograms. Percent parent remaining was calculated from the area ratio of test compound. The slope value was determined by linear regression of the natural logarithm of percent parent remaining versus incubation time curve.
(§1) Peak areas were determined from extracted ion chromatograms to determine the in vitro half-life (t½) of parent compound by regression analysis of the percent parent disappearance vs. time curve. The in vitro half-life (in vitro t½) was determined from the slope value (in vitro t½=−0.693/k). All calculations were carried out using Microsoft Excel.

in vitro [2] = details: for hHEPs % remaining: 1 μM
Method: Human Hepatocyte metabolic stability: Human hepatocytes (X008000, BioIVT) were freshly thawed prior to the incubations with test compound. Hepatocytes were transferred to 50 mL conical tubes and centrifuged 10 min at 100 g. Thawing medium was removed and replaced by preheated (37° C.) incubation medium (William's E Medium supplemented with GlutaMAX), to yield a hepatocyte density ˜1.5×10^6 cells/mL. Cell viability was determined using AO/PI staining and hepatocytes were diluted using incubation medium to a working density of 0.5×10^6 viable cells/mL. 198 μL of hepatocytes were added into each well of a 96-well plate and placed in the incubator to allow the hepatocytes to warm for 10 minutes. 2 μL test compound or positive control was placed into respective wells of the 96-well plate (final concentration test compound 1 μM) to start the reaction. The plate was returned to the incubator and 25 μL aliquots of the well contents were removed at time points of 0, 15, 30, 60, 90 and 120 minutes. The aliquots were mixed with 6 volumes (150 μL) of acetonitrile containing internal standards (100 nM alprazolam, 200 nM caffeine, and 100 nM tolbutamide) to terminate the reaction. The plate was centrifuged for 20 minutes at 3,200 g. Aliquots of 150 μL of the supernatants were used for LC/MS/MS analysis. All incubations were performed in duplicate.
as §1

Chain of recombinant human DHODH (Q02127 whole entry): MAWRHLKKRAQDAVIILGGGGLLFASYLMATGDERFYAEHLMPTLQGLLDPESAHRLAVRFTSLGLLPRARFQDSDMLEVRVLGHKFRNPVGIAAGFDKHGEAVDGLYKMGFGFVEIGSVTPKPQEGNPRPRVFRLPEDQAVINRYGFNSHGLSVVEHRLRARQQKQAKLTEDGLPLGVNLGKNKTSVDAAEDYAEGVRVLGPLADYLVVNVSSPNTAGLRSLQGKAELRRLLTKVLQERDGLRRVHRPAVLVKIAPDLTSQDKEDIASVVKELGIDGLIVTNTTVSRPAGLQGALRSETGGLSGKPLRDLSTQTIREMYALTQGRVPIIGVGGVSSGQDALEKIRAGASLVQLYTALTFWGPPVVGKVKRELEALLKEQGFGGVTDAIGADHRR

Compound: CCc1c(C(=O)N[C@@H]2COCc3c2cnn3-c2ccccc2F)ncn1C [Ex-41, (S)-5-ethyl-N-(1-(2-fluorophenyl)-1,4,5,7-tetrahydropyrano[3,4-c]pyrazol-4-yl)-1-methyl-1H-imidazole-4-carboxamide]
- IC50 (recombinant human DHODH): 10 to 100 nM
- IC50 (MOLM-13 cells): 10 to 100 nM
- HLM % remaining (in vitro [1]): 100%
- half-life at 1 μM (in vitro [1]): > 6.08 h
- hHEPs % remaining (in vitro [2]; % remaining at 120 min): 100%
- half-life at 1 μM (in vitro [2]; human, hepatocytes): > 10 h

Compound: O=C(N[C@@H]1COCc2c1cnn2-c1c(F)cccc1Cl)c1n[nH]c2c1CCCC2 [Ex-46, (S)—N-(1-(2-chloro-6-fluorophenyl)-1,4,5,7-tetrahydropyrano[3,4-c]pyrazol-4-yl)-4,5,6,7-tetrahydro-1H-indazole-3-carboxamide]
- IC50 (recombinant human DHODH): 10 to 100 nM
- IC50 (MOLM-13 cells): 10 to 100 nM
- HLM % remaining (in vitro [1]): 90%
- half-life at 1 μM (in vitro [1]): > 6.08 h
- hHEPs % remaining (in vitro [2]; % remaining at 120 min): 89%
- half-life at 1 μM (in vitro [2]; human, hepatocytes): > 10 h

Compound: O=C(N[C@@H]1COCc2c1cnn2-c1c(F)cccc1Cl)c1ncc2n1CCCC2 [Ex-47, (S)—N-(1-(2-chloro-6-fluorophenyl)-1,4,5,7-tetrahydropyrano[3,4-c]pyrazol-4-yl)-5,6,7,8-tetrahydroimidazo[1,5-a]pyridine-3-carboxamide]
- IC50 (recombinant human DHODH): < 10 nM
- IC50 (MOLM-13 cells): < 10 nM
- HLM % remaining (in vitro [1]): 75%
- half-life at 1 μM (in vitro [1]): 2.22 h
- hHEPs % remaining (in vitro [2]; % remaining at 120 min): 84%
- half-life at 1 μM (in vitro [2]; human, hepatocytes): 9 h

Compound: Cc1cnc(C(=O)N[C@@H]2COCc3c2cnn3-c2c(F)cccc2Cl)cc1C [Ex-48, (S)—N-(1-(2-chloro-6-fluorophenyl)-1,4,5,7-tetrahydropyrano[3,4-c]pyrazol-4-yl)-4,5-dimethylpicolinamide]
- IC50 (recombinant human DHODH): 10 to 100 nM
- IC50 (MOLM-13 cells): 10 to 100 nM
- HLM % remaining (in vitro [1]): 96%
- half-life at 1 μM (in vitro [1]): 6.08 h
- hHEPs % remaining (in vitro [2]; % remaining at 120 min): 82%
- half-life at 1 μM (in vitro [2]; human, hepatocytes): 5.97 h

Compound: O=C(N[C@@H]1COCc2c1cnn2-c1ccccc1Cl)c1ncn2c1CCCC2 [Ex-51, (S)—N-(1-(2-chlorophenyl)-1,4,5,7-tetrahydropyrano[3,4-c]pyrazol-4-yl)-5,6,7,8-tetrahydroimidazo[1,5-a]pyridine-1-carboxamide]
- IC50 (recombinant human DHODH): 10 to 100 nM
- IC50 (MOLM-13 cells): < 10 nM
- HLM % remaining (in vitro [1]): 85%
- half-life at 1 μM (in vitro [1]): 5.93 h
- hHEPs % remaining (in vitro [2]; % remaining at 120 min): 100%
- half-life at 1 μM (in vitro [2]; human, hepatocytes): > 10 h

Compound: Cc1ccccc1-n1ncc2c1COC[C@H]2NC(=O)c1ncn2c1CCCC2 [Ex-52, (S)—N-(1-(o-tolyl)-1,4,5,7-tetrahydropyrano[3,4-c]pyrazol-4-yl)-5,6,7,8-tetrahydroimidazo[1,5-a]pyridine-1-carboxamide]
- IC50 (recombinant human DHODH): 10 to 100 nM
- IC50 (MOLM-13 cells): 10 to 100 nM
- HLM % remaining (in vitro [1]): 84%
- half-life at 1 μM (in vitro [1]): 4.52 h
- half-life at 1 μM (in vitro [2]; human, hepatocytes): > 10 h
- hHEPs % remaining (in vitro [2]; human, hepatocytes, 2 h): 100%

Compound: Cc1ccc(Cl)c(-n2ncc3c2COC[C@H]3NC(=O)c2ncn3c2CCCC3)c1 [Ex-53, (S)—N-(1-(2-chloro-5-methylphenyl)-1,4,5,7-tetrahydropyrano[3,4-c]pyrazol-4-yl)-5,6,7,8-tetrahydroimidazo[1,5-a]pyridine-1-carboxamide]
- IC50 (recombinant human DHODH): 10 to 100 nM
- IC50 (MOLM-13 cells): 10 to 100 nM
- HLM % remaining (in vitro [1]): 96%
- half-life at 1 μM (in vitro [1]): > 6.08 h
- hHEPs % remaining (in vitro [2]; % remaining at 120 min): 99%
- half-life at 1 μM (in vitro [2]; human, hepatocytes): > 10 h

Compound: COc1ccccc1-n1ncc2c1COC[C@H]2NC(=O)c1ncn2c1CCCC2 [Ex-54, (S)—N-(1-(2-methoxyphenyl)-1,4,5,7-tetrahydropyrano[3,4-c]pyrazol-4-yl)-5,6,7,8-tetrahydroimidazo[1,5-a]pyridine-1-carboxamide]
- IC50 (recombinant human DHODH): 10 to 100 nM
- IC50 (MOLM-13 cells): 10 to 100 nM
- HLM % remaining (in vitro [1]): 92%
- half-life at 1 μM (in vitro [1]): > 6.08 h
- hHEPs % remaining (in vitro [2]; % remaining at 120 min): 100%
- half-life at 1 μM (in vitro [2]; human, hepatocytes): > 10 h

Compound: O=C(N[C@@H]1COCc2c1cnn2-c1ccccc1C(F)(F)F)c1ncn2c1CCCC2 [Ex-55, (S)—N-(1-(2-(trifluoromethyl)phenyl)-1,4,5,7-tetrahydropyrano[3,4-c]pyrazol-4-yl)-5,6,7,8-tetrahydroimidazo[1,5-a]pyridine-1-carboxamide]
- IC50 (recombinant human DHODH): 10 to 100 nM
- IC50 (MOLM-13 cells): 10 to 100 nM
- HLM % remaining (in vitro [1]): 94%
- half-life at 1 μM (in vitro [1]): > 6.08 h
- half-life at 1 μM (in vitro [2]; human, hepatocytes): > 10 h
- hHEPs % remaining (in vitro [2]; human, hepatocytes, 2 h): 100%

Source: patent US20250388602A1 (Genase Therapeutics B.V., priority 2022, published 2025)
